# Source: patent US20050197350A1, “Novel quinoline, tetrahydroquinazoline, and pyrimidine derivatives and methods of treatment related to the use thereof” (TAISHO PHARMACEUTICAL CO., LTD., priority 2003, published 2005)
# Structures can show the parent of a compound that is named as a salt.
# Target: MCH receptor (Homo sapiens, UniProt Q99705)
# Experiment: High throughput functional screening FLIPR/FDSS6000 (intracellular Ca2+ evoked by MCH)
# Format: cell-based
# Conditions: FLIPR/FDSS, antagonist activity vs 50 nM MCH; class by percent of control at 10^−7 M or IC50; table after the classification; read-out: class
# Procedure, shortened: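 For antagonist testing, compound-treated cells (30 min, 37 °C) were stimulated with 50 nM MCH and intracellular Ca2+ followed by Fluo4 fluorescence on FLIPR/FDSS6000. Receptor was a constitutively active, non-endogenous MCH receptor; dye loading 4 μM Fluo4-AM, 1 h, 37 °C.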
row,Compound,IC50 [nM]
1,"Cc1cnc(N[C@H]2CC[C@@H](NC(=O)c3ccc(F)c(Cl)c3)CC2)nc1N [Example 3392, N-[cis-4-(4-Amino-5-methyl-pyrimidin-2-ylamino)-cyclohexyl]-3-chloro-4-fluoro-benzamide hydrochloride]",> 200
2,"CN(C)c1ccnc(N[C@H]2CC[C@@H](NC(=O)COc3ccc(Cl)c(Cl)c3)CC2)n1 [Example 3393, 2-(3,4-Dichloro-phenoxy)-N-[cis-4-(4-dimethylamino-pyrimidin-2-ylamino)-cyclohexyl]-acetamide hydrochloride]",< 50
3,"COc1cccc(OCC(=O)N[C@H]2CC[C@@H](Nc3nccc(N(C)C)n3)CC2)c1 [Example 3394, N-[cis-4-(4-Dimethylamino-pyrimidin-2-ylamino)-cyclohexyl]-2-(3-methoxy-phenoxy)-acetamide hydrochloride]",< 50
4,"Cc1cc(N[C@H]2CC[C@@H](NC(=O)c3cncc(Cl)c3)CC2)nc2ccccc12 [Example 3396, 5-Chloro-N-[cis-4-(4-methyl-quinolin-2-ylamino)-cyclohexyl]-nicotinamide]",< 50
5,"Cc1cc(N[C@H]2CC[C@@H](NC(=O)c3cncc(F)c3)CC2)nc2ccccc12 [Example 3397, 5-Fluoro-N-[cis-4-(4-methyl-quinolin-2-ylamino)-cyclohexyl]-nicotinamide]",< 50

# Further lines, results first:
row,IC50 [nM],Compound
1,< 50,"Cc1cnc(N[C@H]2CC[C@@H](NC(=O)c3cc(F)cc(F)c3)CC2)nc1N(C)C [Example 3390, N-[cis-4-(4-Dimethylamino-5-methyl-pyrimidin-2-ylamino)-cyclohexyl]-3,5-difluoro-benzamide hydrochloride]"
2,< 50,"Cc1cnc(N[C@H]2CC[C@@H](NC(=O)Cc3ccc(F)c(F)c3)CC2)nc1N(C)C [Example 3391, 2-(3,4-Difluoro-phenyl)-N-[cis-4-(4-dimethylamino-5-methyl-pyrimidin-2-ylamino)-cyclohexyl]-acetamide hydrochloride]"
